# Data taken from patent publication US20230255974A1, “USE OF THYROMIMETICS FOR THE TREATMENT OF CANCER” (THE UNIVERSITY OF VERMONT, priority 2020, published 2023).
# Tests used:
# MDA-MB-453 cells = assay: Relative cell growth by cell counting, HER2+ breast cancer cells; type: cell-based; conditions: MDA-MB-453, 10 nM GC-1, 8 days
# Method: A similar study was then performed in MDA-MB-453 cells, human epidermal growth factor positive-HER2+, breast cancer cells.
# MCF7 = assay: Mammosphere growth, Luminal A breast cancer cells; type: cell-based; conditions: MCF7, 10 nM GC-1, 5 days
# Source text: Data are mean+/−SD; * indicates p<0.05 determined by t-test.
smiles,measurement,setting,value
"Cc1nc(NC(=O)N2CCC[C@H]2C(N)=O)sc1-c1ccnc(C(C)(C)C(F)(F)F)c1 [Alpelisib, (2S)-1-N-[4-methyl-5-[2-(1,1,1-trifluoro-2-methylpropan-2-yl)pyridin-4-yl]-1,3-thiazol-2-yl]pyrrolidine-1,2-dicarboxamide]","cell growth, inhibitor in the presence of GC-1",MDA-MB-453 cells,enhanced the effect of Alpelisib in reducing cell growth
same,effect of inhibitor in the presence of GC-1,MCF7,enhanced the effect
